Patent US6339042B1, “Herbicidal N-cyclohexadienyl heteroaryloxyacetamides” (American Cyanamid Co., priority 1999, dated 2002)

Legend:
Triticum aestivum [1] = assay: Post-emergence herbicidal evaluation, TRZAW; conditions: three weeks after treatment
Oryza sativum [2] = assay: Post-emergence herbicidal evaluation, ORYSA; conditions: three weeks after treatment
Description: (§2) The compounds of the invention are tested for pre- and post-emergence herbicidal activity.
(§3) Each pot is examined three weeks after treatment and phytotoxicity is assessed according to the rating system set forth below.
(§4) These acetone solutions are diluted with water and the resulting formulations applied at dosage levels equivalent of about 0.4 to 0.1 kg per hectare of test compound per pot. After spraying the plants are placed on greenhouse benches and are cared for in the usual manner, commensurate with conventional greenhouse practices.

Amaranthus tuberculatus [3] = assay: Pre-emergence herbicidal evaluation, AMATA; type: in vivo; conditions: three weeks after treatment
Description: (§1) The treated pots are then placed on greenhouse benches, watered and cared for in accordance with conventional greenhouse procedures.

Glycine max [4] = assay: Pre-emergence herbicidal evaluation, GLXMA; type: in vivo; conditions: three weeks after treatment
Description: as §1

Alopecurus myosuroides [5] = assay: Post-emergence herbicidal evaluation, ALOMY; conditions: three weeks after treatment
Description: as §2, §3, §4

Zea mays [6] = assay: Pre-emergence herbicidal evaluation, ZEAMX; type: in vivo; conditions: three weeks after treatment
Description: as §1

Lolium perenne [7] = assay: Pre-emergence herbicidal evaluation, LOLPE; type: in vivo; conditions: three weeks after treatment
Description: as §1

Glycine max [8] = assay: Post-emergence herbicidal evaluation, GLXMA; conditions: three weeks after treatment
Hordeum vulgare [9] = assay: Pre-emergence herbicidal evaluation, HORVW; type: in vivo; conditions: three weeks after treatment
Description: as §1

Triticum aestivum [10] = assay: Pre-emergence herbicidal evaluation, TRZAW; type: in vivo; conditions: three weeks after treatment
Description: as §1

Echinochloa crus-galli [11] = assay: Pre-emergence herbicidal evaluation, ECHCG; type: in vivo; conditions: three weeks after treatment
Description: as §1

Oryza sativum [12] = assay: Pre-emergence herbicidal evaluation, ORYSA; type: in vivo; conditions: three weeks after treatment
Description: as §1

Setaria viridis [13] = assay: Pre-emergence herbicidal evaluation, SETVI; type: in vivo; conditions: three weeks after treatment
Description: as §1

Galium aparine = assay: Post-emergence herbicidal evaluation, GALAP; conditions: three weeks after treatment
Lolium perenne [14] = assay: Post-emergence herbicidal evaluation, LOLPE; conditions: three weeks after treatment
Hordeum vulgare [15] = assay: Post-emergence herbicidal evaluation, HORVW; conditions: three weeks after treatment
Apera spica venti [16] = assay: Post-emergence herbicidal evaluation, APESV; conditions: three weeks after treatment
Setaria viridis [17] = assay: Post-emergence herbicidal evaluation, SETVI; conditions: three weeks after treatment
Description: as §2, §3, §4

Zea mays [18] = assay: Post-emergence herbicidal evaluation, ZEAMX; conditions: three weeks after treatment
Amaranthus tuberculatus [19] = assay: Post-emergence herbicidal evaluation, AMATA; type: in vivo; conditions: three weeks after treatment
Alopecurus myosuroides [20] = assay: Pre-emergence herbicidal evaluation, ALOMY; type: in vivo; conditions: three weeks after treatment
Description: as §1

Apera spica venti [21] = assay: Pre-emergence herbicidal evaluation, APESV; type: in vivo; conditions: three weeks after treatment
Description: as §1

Echinochloa crus-galli [22] = assay: Post-emergence herbicidal evaluation, ECHCG; conditions: three weeks after treatment

CCN(C(=O)COc1nnc(C(F)(F)C(F)(F)F)s1)C1=CC(C)(C)CC(C)=C1 [Example 8]
phytotoxicity rating TRZAW (Triticum aestivum [1]; 0.100 kg/ha): 0 (0 - No effect)
phytotoxicity rating TRZAW (Triticum aestivum [1]; 0.200 kg/ha): 0 (0 - No effect)
phytotoxicity rating TRZAW (Triticum aestivum [1]; 0.400 kg/ha): 1 (1 - Trace effect)
phytotoxicity rating ORYSA (Oryza sativum [2]; 0.100 kg/ha): 0 (0 - No effect)
phytotoxicity rating ORYSA (Oryza sativum [2]; 0.200 kg/ha): 0 (0 - No effect)
phytotoxicity rating ORYSA (Oryza sativum [2]; 0.400 kg/ha): 2 (2 - Slight effect)
phytotoxicity rating AMATA (Amaranthus tuberculatus [3]; 0.100 kg/ha): 0 (0 - No effect)
phytotoxicity rating AMATA (Amaranthus tuberculatus [3]; 0.200 kg/ha): 1 (1 - Trace effect)
phytotoxicity rating AMATA (Amaranthus tuberculatus [3]; 0.400 kg/ha): 5 (5 - Definite injury)
phytotoxicity rating AMATA (Amaranthus tuberculatus [3]; 0.800 kg/ha): 6 (6 - Herbicidal effect)
phytotoxicity rating GLXMA (Glycine max [4]; 0.100 kg/ha): 0 (0 - No effect)
phytotoxicity rating GLXMA (Glycine max [4]; 0.200 kg/ha): 0 (0 - No effect)
phytotoxicity rating GLXMA (Glycine max [4]; 0.400 kg/ha): 0 (0 - No effect)
phytotoxicity rating GLXMA (Glycine max [4]; 0.800 kg/ha): 0 (0 - No effect)
phytotoxicity rating ALOMY (Alopecurus myosuroides [5]; 0.100 kg/ha): 0 (0 - No effect)
phytotoxicity rating ALOMY (Alopecurus myosuroides [5]; 0.200 kg/ha): 4 (4 - Injury)
phytotoxicity rating ALOMY (Alopecurus myosuroides [5]; 0.400 kg/ha): 4 (4 - Injury)
phytotoxicity rating ZEAMX (Zea mays [6]; 0.100 kg/ha): 0 (0 - No effect)
phytotoxicity rating ZEAMX (Zea mays [6]; 0.200 kg/ha): 0 (0 - No effect)
phytotoxicity rating ZEAMX (Zea mays [6]; 0.400 kg/ha): 0 (0 - No effect)
phytotoxicity rating ZEAMX (Zea mays [6]; 0.800 kg/ha): 0 (0 - No effect)
phytotoxicity rating LOLPE (Lolium perenne [7]; 0.100 kg/ha): 1 (1 - Trace effect)
phytotoxicity rating LOLPE (Lolium perenne [7]; 0.200 kg/ha): 4 (4 - Injury)
phytotoxicity rating LOLPE (Lolium perenne [7]; 0.400 kg/ha): 6 (6 - Herbicidal effect)
phytotoxicity rating LOLPE (Lolium perenne [7]; 0.800 kg/ha): 6 (6 - Herbicidal effect)
phytotoxicity rating GLXMA (Glycine max [8]; 0.100 kg/ha): 2 (2 - Slight effect)
phytotoxicity rating GLXMA (Glycine max [8]; 0.200 kg/ha): 3 (3 - Moderate effect)
phytotoxicity rating GLXMA (Glycine max [8]; 0.400 kg/ha): 4 (4 - Injury)
phytotoxicity rating HORVW (Hordeum vulgare [9]; 0.100 kg/ha): 0 (0 - No effect)
phytotoxicity rating HORVW (Hordeum vulgare [9]; 0.200 kg/ha): 0 (0 - No effect)
phytotoxicity rating HORVW (Hordeum vulgare [9]; 0.400 kg/ha): 1 (1 - Trace effect)
phytotoxicity rating HORVW (Hordeum vulgare [9]; 0.800 kg/ha): 2 (2 - Slight effect)
melting point: 55 °C
phytotoxicity rating TRZAW (Triticum aestivum [10]; 0.100 kg/ha): 0 (0 - No effect)
phytotoxicity rating TRZAW (Triticum aestivum [10]; 0.200 kg/ha): 0 (0 - No effect)
phytotoxicity rating TRZAW (Triticum aestivum [10]; 0.400 kg/ha): 0 (0 - No effect)
phytotoxicity rating TRZAW (Triticum aestivum [10]; 0.800 kg/ha): 0 (0 - No effect)
phytotoxicity rating ECHCG (Echinochloa crus-galli [11]; 0.100 kg/ha): 1 (1 - Trace effect)
phytotoxicity rating ECHCG (Echinochloa crus-galli [11]; 0.200 kg/ha): 4 (4 - Injury)
phytotoxicity rating ECHCG (Echinochloa crus-galli [11]; 0.400 kg/ha): 4 (4 - Injury)
phytotoxicity rating ECHCG (Echinochloa crus-galli [11]; 0.800 kg/ha): 8 (8 - Approaching complete kill)
phytotoxicity rating ORYSA (Oryza sativum [12]; 0.100 kg/ha): 0 (0 - No effect)
phytotoxicity rating ORYSA (Oryza sativum [12]; 0.200 kg/ha): 0 (0 - No effect)
phytotoxicity rating ORYSA (Oryza sativum [12]; 0.400 kg/ha): 0 (0 - No effect)
phytotoxicity rating ORYSA (Oryza sativum [12]; 0.800 kg/ha): 1 (1 - Trace effect)
phytotoxicity rating SETVI (Setaria viridis [13]; 0.100 kg/ha): 1 (1 - Trace effect)
phytotoxicity rating SETVI (Setaria viridis [13]; 0.200 kg/ha): 4 (4 - Injury)
phytotoxicity rating SETVI (Setaria viridis [13]; 0.400 kg/ha): 4 (4 - Injury)
phytotoxicity rating SETVI (Setaria viridis [13]; 0.800 kg/ha): 7 (7 - Good herbicidal effect)
phytotoxicity rating GALAP (Galium aparine; 0.100 kg/ha): 0 (0 - No effect)
phytotoxicity rating GALAP (Galium aparine; 0.200 kg/ha): 0 (0 - No effect)
phytotoxicity rating GALAP (Galium aparine; 0.400 kg/ha): 5 (5 - Definite injury)
phytotoxicity rating LOLPE (Lolium perenne [14]; 0.100 kg/ha): 1 (1 - Trace effect)
phytotoxicity rating LOLPE (Lolium perenne [14]; 0.200 kg/ha): 7 (7 - Good herbicidal effect)
phytotoxicity rating LOLPE (Lolium perenne [14]; 0.400 kg/ha): 8 (8 - Approaching complete kill)
phytotoxicity rating HORVW (Hordeum vulgare [15]; 0.100 kg/ha): 0 (0 - No effect)
phytotoxicity rating HORVW (Hordeum vulgare [15]; 0.200 kg/ha): 0 (0 - No effect)
phytotoxicity rating HORVW (Hordeum vulgare [15]; 0.400 kg/ha): 0 (0 - No effect)
phytotoxicity rating APESV (Apera spica venti [16]; 0.100 kg/ha): 0 (0 - No effect)
phytotoxicity rating APESV (Apera spica venti [16]; 0.200 kg/ha): 4 (4 - Injury)
phytotoxicity rating APESV (Apera spica venti [16]; 0.400 kg/ha): 6 (6 - Herbicidal effect)
phytotoxicity rating SETVI (Setaria viridis [17]; 0.100 kg/ha): 0 (0 - No effect)
phytotoxicity rating SETVI (Setaria viridis [17]; 0.200 kg/ha): 0 (0 - No effect)
phytotoxicity rating SETVI (Setaria viridis [17]; 0.400 kg/ha): 0 (0 - No effect)
phytotoxicity rating ZEAMX (Zea mays [18]; 0.100 kg/ha): 0 (0 - No effect)
phytotoxicity rating ZEAMX (Zea mays [18]; 0.200 kg/ha): 0 (0 - No effect)
phytotoxicity rating ZEAMX (Zea mays [18]; 0.400 kg/ha): 0 (0 - No effect)
phytotoxicity rating AMATA (Amaranthus tuberculatus [19]; 0.100 kg/ha): 0 (0 - No effect)
phytotoxicity rating AMATA (Amaranthus tuberculatus [19]; 0.200 kg/ha): 0 (0 - No effect)
phytotoxicity rating AMATA (Amaranthus tuberculatus [19]; 0.400 kg/ha): 0 (0 - No effect)
phytotoxicity rating ALOMY (Alopecurus myosuroides [20]; 0.100 kg/ha): 1 (1 - Trace effect)
phytotoxicity rating ALOMY (Alopecurus myosuroides [20]; 0.200 kg/ha): 4 (4 - Injury)
phytotoxicity rating ALOMY (Alopecurus myosuroides [20]; 0.400 kg/ha): 6 (6 - Herbicidal effect)
phytotoxicity rating ALOMY (Alopecurus myosuroides [20]; 0.800 kg/ha): 8 (8 - Approaching complete kill)
phytotoxicity rating APESV (Apera spica venti [21]; 0.100 kg/ha): 0 (0 - No effect)
phytotoxicity rating APESV (Apera spica venti [21]; 0.200 kg/ha): 0 (0 - No effect)
phytotoxicity rating APESV (Apera spica venti [21]; 0.400 kg/ha): 8 (8 - Approaching complete kill)
phytotoxicity rating APESV (Apera spica venti [21]; 0.800 kg/ha): 9 (9 - Complete kill)
phytotoxicity rating ECHCG (Echinochloa crus-galli [22]; 0.100 kg/ha): 0 (0 - No effect)
phytotoxicity rating ECHCG (Echinochloa crus-galli [22]; 0.200 kg/ha): 0 (0 - No effect)
phytotoxicity rating ECHCG (Echinochloa crus-galli [22]; 0.400 kg/ha): 0 (0 - No effect)
